Source: patent publication US20250134902A1, “DRUG REPURPOSING FOR DELAYED TREATMENT OF ISCHEMIC STROKE” (UNIVESRITY OF NORTH TEXAS HEALTH SCIENCE CENTER, priority 2022, published 2025)
Read-outs that look alike come from different tables or passages of the source.

Legend:
neuronal MN9D cell line = assay: BDNF secretion via in situ ELISA; format: cell-based; settings: MN9D cells; for Efficacy of BDNF secretion: 24 hrs, normalized to maximal response of 10 μM 4-PPBP, mean ± SEM, asterisk = significantly different from 4-PPBP
From the text: Measuring BDNF secretion via in situ ELISA. […] The in situ ELISA improves on traditional ELISA by seeding BDNF-secreting cells directly into the wells pre-coated with an anti-BDNF primary antibody. BDNF secreted by these cells is immediately captured by the primary antibody, drastically increasing the sensitivity and reproducibility of the ELISA assay. Intact cells are removed […] the addition of the secondary and tertiary antibodies. The amount of BDNF secreted from the neuronal MN9D cells was quantified using an in situ ELISA assay developed using the BDNF EMAX® ImmunoAssay kit (Cat. No. G7611, Promega, Madison, WI). Briefly, a NUNC™ MAXISORP™ flat-bottom, polystyrene, 96-well immunoplate was coated for 48 hrs at 4° C. with an anti-BDNF monoclonal antibody diluted 1:1000 v/v in carbonate buffer containing 25 mM sodium bicarbonate and 25 mM sodium carbonate, pH 9.7. Unbound antibody was removed by washing 5 times with 150 μL of TBST buffer (20 mM Tris-HCl, pH7.6, 150 mM NaCl, and 0.05% (v/v) TWEEN® 20), before blocking non-specific sites first with blocking buffer for 1 hr and then with culture medium for 2 hrs. Cells were seeded at 35,000 cells per well and incubated overnight at 37° C. in a humidified CO2 incubator. The following day, the wells were replaced with fresh culture media containing either experimental compounds or vehicle controls, then incubated for an additional 24 hours. In addition, on the same plate, but in separate wells, BDNF standards were added ranging in concentration from 15.6-250 pg/mL. After 24 hrs incubation with experimental compounds, the media was aspirated and 100 μL of Dulbecco's phosphate saline (D-PBS without Ca^2+ and Mg^2+ supplemented with 5 mM EDTA) was added to each well and incubated for 15 min at 37° C. to promote cell lifting. Cells were then detached from the bottom of wells by triturating in the center and around the edges of the well. After removing all cell debris, the wells were rinsed five times with 150 μL of TBST. The plate was then incubated with 1:500 v/v diluted polyclonal anti-human BDNF antibody for 2 hrs at room temperature. This antibody was removed, and wells were washed five times with 150 μL of TBST, before incubating with 1:200 v/v diluted polyclonal Anti-IgY HRP conjugate for 2 hrs at room temperature. Wells were then washed five times with 150 μL of TBST and the remaining specifically bound polyclonal antibody was detected with the 50 μL colorimetric HRP substrate 3,3′,5,5′-Tetramethylbenzidine (TMB). The reaction was terminated with 50 μL of 1 M HCl and the color intensity was quantified by measuring the absorbance at 450 nm using a FLEXSTATION® 3 plate reader (Molecular Devices, Sunnyvale, CA). […] A one-way ANOVA with a Bonferroni multiple comparisons post-hoc analysis (P<0.05) was applied to determine significant differences between groups.
Further, BDNF secreted from MN9D cells can be detected 24 hours after treatment with S1R ligand, whereas BDNF secreted from the B104 cell line takes 7 days to be detected (Fujimoto, et al., 2012).
An in situ ELISA approach was utilized because of its improved sensitivity related to its rapid capture of secreted BDNF (Balkowiec & Katz, 2000; Dalwadi, et al., 2017). […] Values are averages of 2-10 experiments±SEM, and each experiment was performed in triplicate. Statistical significance at P<0.05 was determined by ANOVA followed by a Bonferroni's post-hoc test and are marked with an asterisk.

rat blood = assay: Clotting (streak) assay of thrombotic potential
Method: Clotting assays. Thrombotic potential was assessed with trunk blood from donor rats using a protocol modified from Kim et al. (Kim et al., 2010). Oxeladin was compared to whole blood with or without the anticoagulant benzamidine and several other S1R ligands at doses 10× greater than those that stimulate the release of BDNF (Dalwadi et al., 2022; Dalwadi et al., 2017). Blood was rapidly collected into chilled, pre-weighed plastic tubes containing a known quality of EDTA disodium salt (>3.7 mM) electrostatically-coated onto the tube wall. Blood was prevented from coagulating by gently swirling the chilled EDTA-coated tube. The tube was weighed and the volume of collected blood calculated in order to compute the exact concentration of EDTA in the uncoagulated blood sample allowing us to determine which concentration of calcium to add back into the blood to initiate coagulation. Uncoagulated blood samples were stored chilled. The following was be dispensed into NUNC™ MICROWELL™ MiniTrays: 8 μL/well of normal saline containing a concentration of calcium 1.2 mM higher than that of the concentration of EDTA in the blood sample, 1 μL/well of oxeladin, 3 mM benzamidine anticoagulant positive control, or untreated or vehicle negative controls, and 1 μL/well of (EDTA-treated) uncoagulated rat blood. Plates were tilted at a 45° angle at 5, 15, 30, 45 and 60 minutes to observe coagulation (i.e., no streaking) and compared to the controls. Each triplicate well was scored by a treatment-blinded observer as Yes (coagulation, no streaking) or No (no coagulation, streaking). The experiment was repeated with two separate donor rats.
Referring to FIG. 5, the effect on thrombotic activity of test drugs, benzamidine anticoagulant positive control, or untreated or vehicle negative controls on whole blood from donor rats was assessed by tilting treated blood samples at a […] to observe coagulation (i.e., no streaking) between […] (top panel). Blood coagulation was represented by a value between 1 (no streaking, coagulation) and 0 (streaking, less or no coagulation), and values were assigned for each test drug, benzamidine, and untreated and vehicle controls (bottom panel). Quantitative results from these clotting assays, including coagulation half-life, are summarized below in Table 5.

[1] = target: T1, human Sigma-1 receptor (S1R) (Homo sapiens, UniProt Q99720); assay: Radioligand competition binding at Sigma-1 receptor ([3H]-(+)-pentazocine, MCF-7-hS1R)
T1 construct: expressed in transfected cells
T1 sequence (Q99720 whole entry): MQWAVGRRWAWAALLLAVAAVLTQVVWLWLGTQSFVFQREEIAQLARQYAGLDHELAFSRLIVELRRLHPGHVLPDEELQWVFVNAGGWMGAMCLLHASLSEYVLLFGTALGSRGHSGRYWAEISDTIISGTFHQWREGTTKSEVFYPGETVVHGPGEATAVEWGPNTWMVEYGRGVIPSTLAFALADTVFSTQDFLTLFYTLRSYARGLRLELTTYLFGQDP
Method: Measuring receptor density with radioligand binding.
Measuring the ligand affinities at SIR and S2R receptors by radioligand binding. […] Binding conditions were the same as described previously for the S1R (Schetz, et al., 2007): binding buffer (Tris 50 mM, pH=8.1 at 37° C.), ice-cold wash buffer (Tris 10 mM, pH=8.1 at 0-2° C.), and incubation time (3 hrs at 37° C.) with shaking. Non-specific binding for the S1R and S2R was determined in the presence of 5 μM BD1063 and […] haloperidol, respectively. Following incubation, receptors were collected via rapid filtration through GF/C filters (Brandel, Gaithersburg, MD) followed by washing three times with 3 mL of ice-cold wash buffer. Dried filters were transferred to vials filled with 3.5 ml of scintillation fluid, and the radioactivity was quantified on a liquid scintillation analyzer (TRICARB® 2800TR) from Perkin Elmer (Saint Louis, MO). Mean values from duplicate or triplicate determinations are reported along with their associated standard error of the mean (SEM). Ki values were calculated from IC50 values using the Cheng-Prusoff equation. The concentration of membrane protein was determined using a PIERCE® BCA Protein Assay kit (Life Technologies, Grand Island, NY) following the manufacturer's protocol.
Referring to FIG. 1, the selectivity of potential S1R ligands over S2R was empirically evaluated. Human MCF-7 cells were used as the source of the S2R because these cells express the endogenous S2R (Vilner, John, et al., 1995; Wu & Bowen, 2008) but lack detectable levels of the S1R, allowing unambiguous detection of S2R activity in untransfected cells (Schetz, et al., 2007). MCF-7 cells stably expressing the cloned human S1R were used as the source of S1R.

[2] = displacement of 0.5 nM [3H]-(+)-pentazocine, MCF-7 cells expressing human S1R, average of 2-3 experiments ± SEM, read-out: S1R affinity (Ki)

For `CCC(C/C=C/c1ccccc1)(c1ccccc1)N(C)CC1CC1` (single isomer, unassigned; (+)) [(+)-igmesine], the “Efficacy of BDNF secretion” value (neuronal MN9D cell line; 10 μM) was 0.42 ± 0.03 and the “Coagulation Half-Life (λ1/2 ± SD)” value (rat blood; rat) was 19 ± 16 min.
For `c1ccc(CCCCN2CCC(c3ccccc3)CC2)cc1` [4-PPBP], the “Efficacy of BDNF secretion” value (neuronal MN9D cell line; 10 μM) was 1, the “BDNF secreted, maximal stimulation” value (neuronal MN9D cell line; 10 μM, averaged ± SEM, n=3-10, baseline 75.4±6.9) was 128.6 ± 12.8 pg/mL and the “Coagulation Half-Life (λ1/2 ± SD)” value (rat blood; 100 μM, rat blood) was 11 ± 6 min.
For `CN1CCN(CCc2ccc(Cl)c(Cl)c2)CC1` [BD1063], the “reversal of S1R agonist-induced BDNF secretion” value (neuronal MN9D cell line; 15 nM antagonist) was “reversed”.
With `N=C(N)c1ccccc1` [Benzamidine] the “Coagulation Half-Life (λ1/2 ± SD)” value (rat blood; 3000 μM, rat blood, positive control) was >1,440 minutes and the “Coagulation Half-Life (λ1/2 ± SD)” value (rat blood; 3000 μM, rat blood, positive control, listed as positive control) was > 1,440 minutes.
In the case of `CCC(C(=O)OCCOCCN(CC)CC)c1ccccc1` (stereo not drawn) [Butamirate], the “stimulation of BDNF secretion” value (neuronal MN9D cell line; 10 μM) is reported as “With the exception of butamirate, all compounds were able to stimulate BDNF release”, the “selective for S1R over S2R” value [1] is reported as 10 fold and the Ki [1, 2] is reported as 17.2 ± 1.7 nM. The “S2R/S1R ratio (Ki S2R/Ki S1R)” value ([1]; selectivity for S1R over S2R) was 10.
For `CCN(CC)CCOCCOC(=O)C1(c2ccccc2)CCCC1` [Carbetapentane], the “Efficacy of BDNF secretion” value (neuronal MN9D cell line; 10 μM) was 0.73 ± 0.05, the “Coagulation Half-Life (λ1/2 ± SD)” value (rat blood; rat) was 23 ± 18 min and the Ki [1, 2] was 19.8 ± 2.3 nM.
In the case of `OC(CCCN1CCC(O)(c2ccc(Cl)cc2)CC1)c1ccc(F)cc1` (stereo not drawn) [Haloperidol Metabolite II], the “Coagulation Half-Life (λ1/2 ± SD)” value (rat blood; 100 μM, rat blood) is reported as 14 ± 11 min.
With `Cc1c(C2CCN(CCc3ccccc3)CC2)noc1-c1ccc(Cl)cc1` [L-741, 742] the “Coagulation Half-Life (λ1/2 ± SD)” value (rat blood; rat) was 11 ± 6 min.
`Clc1ccc(N2CCN(Cc3c[nH]c4ncccc34)CC2)cc1` [L-745, 870] was tested, and the “Coagulation Half-Life (λ1/2 ± SD)” value (rat blood; rat) was 11 ± 6 min.
With `O=C(OCCN1CCOCC1)C1(c2ccccc2)CCCCC1` [PRE-084] the “stimulation of BDNF secretion” value (neuronal MN9D cell line; 10 μM) was “failed to stimulate BDNF secretion”.
For `CC(CN1c2ccccc2Sc2ccccc21)N(C)C` (stereo not drawn) [Promethazine], the “Efficacy of BDNF secretion” value (neuronal MN9D cell line; 10 μM) was 1.09 ± 0.34, the “effect on thrombosis in blood” value (rat blood) was “do not alter thrombosis” and the “selective for S1R over S2R” value [1] was 5 fold. For the same compound, the Ki ([1]; receptor not given, S1R implied, read-out: affinity) was 157 nM.
For `COc1ccc(CCN2CCN(CCCc3ccccc3)CC2)cc1OC` [SA4503], the “Coagulation Half-Life (λ1/2 ± SD)” value (rat blood; rat) was 11 ± 6 min.
